In patent publication US4698336A, “3-(pyrrolidinio)methyl-3-cephem derivatives” (Eisai Co., Ltd., priority 1985, dated 1987) one finds MIC and LD50 data, which are given here for six compounds.

≈ marks a conversion by molar mass, not a printed value.

For data set [1], the system named is Staphylococcus aureus 209-P. Nature of the data set: Antibacterial activity (MIC), Staphylococcus aureus 209-P. Format: cell-based.
Data set [2] has as its system Serratia marcescens ES-75. Briefly: Antibacterial activity (MIC), Serratia marcescens ES-75. The data set is classed as cell-based. To be noted: ES75.
Data set [3] concerns Citrobacter freundii EC-34. Briefly: Antibacterial activity (MIC), Citrobacter freundii EC-34. The note with it: EC34; Citrobacter freundii EC-34, β Lactamase producing bacteria. The data set is classed as cell-based.
The test system of data set [4] is Pseudomonas aeruginosa EP-01. Nature of the data set: Antibacterial activity (MIC), Pseudomonas aeruginosa EP-01. Format: cell-based. To be noted: EP01.
The next data set has as its system Escherichia coli NIHJ. Nature of the data set: Antibacterial activity (MIC), Escherichia coli NIHJ. Format: cell-based.
The subject of data set [5] is Staphylococcus aureus E31106. Briefly: Antibacterial activity (MIC), Staphylococcus aureus E31106. Format: cell-based. The note with it: Staphylococcus aureus E31106, β Lactamase producing bacteria.
Data set [6] relates to Pseudomonas maltophilia E04004. Nature of the data set: Antibacterial activity (MIC), Pseudomonas maltophilia E04004. The data set is classed as cell-based. To be noted: Stenotrophomonas maltophilia.
Data set [7] is described as follows: Acute toxicity, LD50 (mouse, intravenous injection). To be noted: in vivo. From the text: Acute toxicity [LD50 (mouse, intravenous injection)] of the following compounds was more than 3 g/kg.

What is called MIC is the lowest concentration found to suppress growth. A high value points to a need for much substance. For `CO/N=C(\C(=O)N[C@@H]1C(=O)N2C(C(=O)[O-])=C(C[N@+]3(C)CCC[C@H]3C(N)=O)CS[C@H]12)c1csc(N)n1` [Control Compound, reference compound], the MIC in data set [1] is 1.56 µg/mL (≈ 2.98 µM); in data set [2], 0.2 µg/mL (≈ 0.382 µM); in data set [3], 0.2 µg/mL (≈ 0.382 µM); in data set [4], 6.25 µg/mL (≈ 11.9 µM); with Escherichia coli NIHJ, 0.1 µg/mL (≈ 0.191 µM); in data set [5] it was 50 µg/mL (≈ 95.5 µM). The compound also gave an MIC in data set [6] of 12.5 µg/mL (≈ 23.9 µM).
The term LD50 denotes the dose expected to kill half of the subjects tested. As for `CO/N=C(\C(=O)N[C@@H]1C(=O)N2C(C(=O)[O-])=C(C[N@+]3(C)CCC[C@H]3CO)CS[C@H]12)c1nsc(N)n1` [Example 1-A, 7β-[2-(5-Amino-1,2,4-thiadiazol-3-yl)-(Z)-2-methoxyiminoacetamido]-3-[(2S)-hydroxymethyl-(1S)-methylpyrrolidinio]methyl-3-cephem-4-carboxylate], the MIC stood at 1.56 µg/mL (≈ 3.05 µM) in data set [1]; 0.1 µg/mL (≈ 0.195 µM) in data set [2]; 0.05 µg/mL (≈ 0.0977 µM) in data set [3]; 0.8 µg/mL (≈ 1.56 µM) in data set [4]; 0.025 µg/mL (≈ 0.0489 µM) against Escherichia coli NIHJ; 6.25 µg/mL (≈ 12.2 µM) in data set [5]. Besides, the lowest concentration to inhibit growth in data set [6] (MIC) was 6.25 µg/mL (≈ 12.2 µM). The same compound yielded an LD50 in data set [7] of over 3000 mg/kg.
On to `CO/N=C(\C(=O)N[C@@H]1C(=O)N2C(C(=O)[O-])=C(C[N@@+]3(C)CCC[C@H]3CO)CS[C@H]12)c1nsc(N)n1` [Example 1-B, 7β-[2-(5-Amino-1,2,4-thiadiazol-3-yl)-(Z)-2-methoxyiminoacetamido]-3-[ (2S)-hydroxymethyl-(1R)-methylpyrrolidinio]methyl-3-cephem-4-carboxylate], for which the minimum inhibitory concentration (MIC) in data set [1] worked out at 1.56 µg/mL (≈ 3.05 µM); in data set [2], 0.1 µg/mL (≈ 0.195 µM); in data set [3] it was 0.1 µg/mL (≈ 0.195 µM); in data set [4] it was 1.56 µg/mL (≈ 3.05 µM); against Escherichia coli NIHJ, 0.1 µg/mL (≈ 0.195 µM); in data set [5], 12.5 µg/mL (≈ 24.4 µM). In data set [6], the MIC was determined as 6.25 µg/mL (≈ 12.2 µM).
Regarding `CO/N=C(\C(=O)N[C@@H]1C(=O)N2C(C(=O)[O-])=C(C[N@+]3(C)CCC[C@H]3C(N)=O)CS[C@H]12)c1nsc(N)n1` [Example 2, 7β-[2-(5-Amino-1,2,4-thiadiazol-3-yl)-(Z)-2-methoxyiminoacetamido]-3-[(2S)-carbamoyl-(1S)-methylpyrrolidinio]methyl-3-cephem-4-carboxylate], the minimum inhibitory concentration (MIC) in data set [1] is 1.56 µg/mL (≈ 2.97 µM); in data set [2], 0.1 µg/mL (≈ 0.191 µM); in data set [3] it was 0.05 µg/mL (≈ 0.0953 µM); in data set [4] it was 1.56 µg/mL (≈ 2.97 µM); against Escherichia coli NIHJ, under 0.025 µg/mL; in data set [5] it was 12.5 µg/mL (≈ 23.8 µM). For the same compound, in data set [6], 3.13 µg/mL (≈ 5.97 µM) was the least that counted as inhibitory (MIC). The compound also registered an LD50 in data set [7] of over 3000 mg/kg.
On to `CO/N=C(\C(=O)N[C@@H]1C(=O)N2C(C(=O)[O-])=C(C[N@+]3(C)CCC[C@H]3C)CS[C@H]12)c1nsc(N)n1` [Example 3, 7β-[2-(5-Amino-1,2,4-thiadiazol-3-yl)-(Z)-2-methoxyiminoacetamido]-3-[(1S,2R)-dimethylpyrrolidinio]methyl-3-cephem-4-carboxylate], for which the minimal inhibitory concentration (MIC) in data set [1] was 1.56 µg/mL (≈ 3.15 µM); in data set [2], 0.2 µg/mL (≈ 0.404 µM); in data set [3], 0.2 µg/mL (≈ 0.404 µM); in data set [4] it was 1.56 µg/mL (≈ 3.15 µM); against Escherichia coli NIHJ, 0.2 µg/mL (≈ 0.404 µM); in data set [5], 12.5 µg/mL (≈ 25.2 µM). This compound also had a minimal inhibitory concentration (MIC) in data set [6] of 6.25 µg/mL (≈ 12.6 µM). In addition, in data set [7], the 50% lethal dose (LD50) was over 3000 mg/kg.
Take `CO/N=C(\C(=O)N[C@@H]1C(=O)N2C(C(=O)[O-])=C(C[N@+]3(C)CCC[C@H]3CO)CS[C@H]12)c1csc(N)n1` [Example 5, 7β-[2-(2-Aminothiazol-4-yl)-(Z)-2-methoxyiminoacetoamido]-3-[(2S)-hydroxymethyl-(1S)-methylpyrrolidinio]methyl-3-cephem-4-carboxylate]: the MIC amounted to 0.8 µg/mL (≈ 1.57 µM) in data set [1]; 0.1 µg/mL (≈ 0.196 µM) in data set [2]; 0.05 µg/mL (≈ 0.0979 µM) in data set [3]; 3.13 µg/mL (≈ 6.13 µM) in data set [4]; 0.05 µg/mL (≈ 0.0979 µM) against Escherichia coli NIHJ; 25 µg/mL (≈ 49 µM) in data set [5]. For the same compound, in data set [6], the minimum inhibitory concentration (MIC) is 12.5 µg/mL (≈ 24.5 µM). In data set [7], this compound registered an LD50 of over 3000 mg/kg.
